{"source": "patent US4714705A", "about": "“4-nitrogen substituted isoquinolinol compounds having cardiotonic, phosphodiesterase fraction III inhibiting properties and/or renal vasodilating properties” (Ortho Pharmaceutical Corporation, priority 1986, dated 1987)", "key": {"[1]": {"tested_on": "adult mongrel dogs", "assay": "Acute in vivo cardiotonic activity in anesthetized dogs", "parameters": "species or system dog (adult mongrel)", "conditions": "Canis lupus familiaris, relative to controls; for change in vivo at 0.15 mg/kg: 0.150 mg/kg intravenous; for change in vivo at 8.75 mg/kg: 8.75 mg/kg intravenous; for change in vivo at 1.875 mg/kg: 1.875 mg/kg intravenous; for change in vivo at 0.375 mg/kg: 0.375 mg/kg intravenous", "protocol": "The acute in vivo cardiotonic activity of compounds prepared according to the present invention was determined according to a modification of the procedure described by Alousi et al., Circ. Res., 45, 666 (1979).\nIn particular, adult mongrel dogs were anesthetized with sodium pentobarbital and were artificially respired. Arterial pressure was monitored via a femoral artery, and the pulse pressure was used to trigger a cardiotachometer for heart rate. Left ventricular pressure was determined with a Millar catheter, and dP/dt (the change in ventricular pressure with time) was derived. Cardiac output was determined by measuring ascending aortic blood flow with an electromagnetic flow probe, and myocardial contractile force was measured with a Walton Brodie strain gauge sutured to the right ventricle. Lead II EKG was also recorded.\nA standard dose (10 μ/kg/min) of dopamine was administered to assess myocardial responsiveness.\nCompounds of the invention were administered by intravenous infusion or bolus oral administration, and the effects on cardiovascular parameters were determined.\nDose related effects on the test compound on blood pressure (BP), heart rate (HR), maximum change in left ventricular pressure with time (dP/dt max), % change in cardiac force (CF) and the increase in mean arterial blood pressure relative to controls (MABP) were compared to pretreatment control values, expressed as a % change and rated for activity. Statistical evaluations were made using the appropriate parametric test against controls."}, "[2]": {"tested_on": "adult mongrel dogs", "assay": "Renal vasodilating activity in anesthetized dogs", "format": "in vivo, dog (adult mongrel)", "conditions": "Canis lupus familiaris, relative to controls; for change in vivo at 0.2 mg/kg: 0.2 mg/kg intravenous; for change in vivo at 6.2 mg/kg: 6.2 mg/kg intravenous; for change in vivo at 0.34 mg/kg: 0.34 mg/kg intravenous", "protocol": "Goldberg et al, J. Pharmacol. Exp. Ther., 163, 188 (1968), performed an investigation of the structural requirements for dopamine-like renal vasodilation of phenethylamines and apmorphine. The following procedure is a variation of the assay described in that report.\nAdult mongrel dogs were anesthetized and surgically prepared for electromagnetic measurement of renal artery blood flow. A carotid artery was cannulated for measuring arterial blood pressure, and drugs were administered intravenously or intraarterially (via the renal artery). Heart rate was monitored with a cardiotachometer. Renal vascular resistance was calculated as the ratio of mean arterial blood pressure/renal artery blood flow. Dopamine was infused intravenously at […] for ten minutes (at an infusion rate of about 1 ml/min) to determine responsiveness of each dog to renal dopamine receptor stimulation. Cumulative dose-response data were obtained by infusing a compound of this invention at progressively increasing (usually three-fold) infusion rates, esch dose being infused for five minutes. The maximum percent increase from pre-drug control in renal artery blood flow (or a decrease in renal vascular resistance) was determined for each infusion dose.\nRBF values are percent increase in renal blood flow. RVR values are percent increase in renal vascular resistance. MABP and HR are increases in mean arterial blood pressure and heart rate, respectively, relative to controls."}, "[3]": {"conditions": "read-out: CF, percent change in cardiac force"}, "[4]": {"conditions": "read-out: HR, percent change in heart rate"}, "[5]": {"conditions": "read-out: MABP, mean arterial blood pressure"}, "[6]": {"conditions": "read-out: dP/dt, maximum change left ventricular pressure with time"}, "[7]": {"conditions": "read-out: RBF, renal blood flow"}, "[8]": {"conditions": "read-out: RVR, renal vascular resistance"}}, "note": "Like-named read-outs stand apart in the source and are kept apart here."}
{"smiles": "COc1cc2c(C)nc(O)c([N+](=O)[O-])c2cc1OC", "note": "[Compound BA, 3-Hydroxy-6,7-dimethoxy-1-methyl-4-nitroisoquinoline]", "values": [{"measurement": "change in vivo at 0.15 mg/kg", "setting": "[1]; [3]", "result": 92, "unit": "%"}, {"measurement": "change in vivo at 0.15 mg/kg", "setting": "[1]; [4]", "result": 8, "unit": "%"}, {"measurement": "change in vivo at 0.15 mg/kg", "setting": "[1]; [5]", "result": -19, "unit": "%"}, {"measurement": "change in vivo at 0.15 mg/kg", "setting": "[1]; [6]", "result": 63, "unit": "%"}, {"measurement": "change in vivo at 0.2 mg/kg", "setting": "[2]; [4]", "result": 83, "unit": "%"}, {"measurement": "change in vivo at 0.2 mg/kg", "setting": "[2]; [5]", "result": -12, "unit": "%"}, {"measurement": "change in vivo at 0.2 mg/kg", "setting": "[2]; [7]", "result": 14, "unit": "%"}, {"measurement": "change in vivo at 0.2 mg/kg", "setting": "[2]; [8]", "result": -23, "unit": "%"}]}
{"smiles": "COc1cc2c(C)nc(O)c(NC(C)=O)c2cc1OC", "note": "[Compound BG, 4-Acetamido-3-hydroxy-6,7-dimethoxy-1-methylisoquinoline Hemihydrate]", "values": [{"measurement": "change in vivo at 8.75 mg/kg", "setting": "[1]; [3]", "result": 47, "unit": "%"}, {"measurement": "change in vivo at 8.75 mg/kg", "setting": "[1]; [4]", "result": 5, "unit": "%"}, {"measurement": "change in vivo at 8.75 mg/kg", "setting": "[1]; [5]", "result": -3, "unit": "%"}, {"measurement": "change in vivo at 8.75 mg/kg", "setting": "[1]; [6]", "result": 33, "unit": "%"}, {"measurement": "change in vivo at 6.2 mg/kg", "setting": "[2]; [4]", "result": 14, "unit": "%"}, {"measurement": "change in vivo at 6.2 mg/kg", "setting": "[2]; [5]", "result": 6, "unit": "%"}, {"measurement": "change in vivo at 6.2 mg/kg", "setting": "[2]; [7]", "result": 39, "unit": "%"}, {"measurement": "change in vivo at 6.2 mg/kg", "setting": "[2]; [8]", "result": -24, "unit": "%"}]}
{"smiles": "COc1cc2cnc(O)c(NC(C)=O)c2cc1OC", "note": "[BF]", "values": [{"measurement": "change in vivo at 1.875 mg/kg", "setting": "[1]; [3]", "result": 23, "unit": "%"}, {"measurement": "change in vivo at 1.875 mg/kg", "setting": "[1]; [4]", "result": 7, "unit": "%"}, {"measurement": "change in vivo at 1.875 mg/kg", "setting": "[1]; [5]", "result": 1, "unit": "%"}, {"measurement": "change in vivo at 1.875 mg/kg", "setting": "[1]; [6]", "result": 38, "unit": "%"}, {"measurement": "change in vivo at 6.2 mg/kg", "setting": "[2]; [4]", "result": -8, "unit": "%"}, {"measurement": "change in vivo at 6.2 mg/kg", "setting": "[2]; [5]", "result": 14, "unit": "%"}, {"measurement": "change in vivo at 6.2 mg/kg", "setting": "[2]; [7]", "result": 30, "unit": "%"}, {"measurement": "change in vivo at 6.2 mg/kg", "setting": "[2]; [8]", "result": -12, "unit": "%"}]}
{"smiles": "CCOc1cc2c(C)nc(O)c([N+](=O)[O-])c2cc1OCC", "note": "[BK]", "values": [{"measurement": "change in vivo at 0.375 mg/kg", "setting": "[1]; [3]", "result": 62, "unit": "%"}, {"measurement": "change in vivo at 0.375 mg/kg", "setting": "[1]; [4]", "result": 11, "unit": "%"}, {"measurement": "change in vivo at 0.375 mg/kg", "setting": "[1]; [5]", "result": -2, "unit": "%"}, {"measurement": "change in vivo at 0.375 mg/kg", "setting": "[1]; [6]", "result": 22, "unit": "%"}, {"measurement": "change in vivo at 0.34 mg/kg", "setting": "[2]; [4]", "result": 3, "unit": "%"}, {"measurement": "change in vivo at 0.34 mg/kg", "setting": "[2]; [5]", "result": -21, "unit": "%"}, {"measurement": "change in vivo at 0.34 mg/kg", "setting": "[2]; [7]", "result": 14, "unit": "%"}, {"measurement": "change in vivo at 0.34 mg/kg", "setting": "[2]; [8]", "result": -30, "unit": "%"}]}
